Data taken from patent US20050265999A1, “Modulation of 5-HT2 receptors as a treatment for cardiovascular diseases” (Myogen, Inc., priority 2003, published 2005).

Tests used:
[1] = tested on: neonatal rat ventricular myocytes (NRVM); experiment: Cytotoxicity by adenylate kinase (AK) release from NRVM; format: cell-based
Experimental: (§1) Hypertrophy and toxicity assays. Primary hypertrophy endpoints for NRVM included quantitation of: ANF secretion, total cellular protein and cell volume. ANF in media supernatants was quantitated by competitive ELISA using a monoclonal anti-ANF antibody (Biodesign) and a biotinylated ANF peptide (Phoenix Peptide). Total cellular protein was quantitated by standard Coomassie dye-binding assay; cells were lysed in protein assay reagent (BioRad) and absorbance at A595 was measured after 1 hour. For cell volume measurements, NRVM cultured in 6-well dishes were harvested by treatment with trypsin (Cellgro). After recovery by centrifugation, cell pellets were washed in PBS, resuspended in 10 ml IsoFlow electrolyte solution (Beckman-Coulter) and analyzed with a Z2 Coulter Particle Counter and Size Analyzer (Beckman-Coulter). Cytotoxicity was quantitated by measuring release of adenylate kinase (AK) from cultured NRVM into culture medium (ToxiLight kit, Cambrex).

[2] = tested on: neonatal rat ventricular myocytes (NRVM); experiment: ANF secretion by competitive ELISA in NRVM; format: cell-based; conditions: NRVM stimulated with 18264 (1 μM), 48 h; antagonist up to 3 μM
Experimental: (§2) NRVM culture. For preparations of neonatal rat ventricular myocytes (NRVMs), hearts were removed from 10-20 newborn (1-2 days old) Sprague-Dawley rats. Isolated ventricles were pooled, minced and dispersed by three 20-min incubations at 37° C. in Ads buffer (116 mM NaCl, 20 mM HEPES, 10 mM NaH2PO4, 5.5 mM glucose, 5 mM KCl, 0.8 mM MgSO4, pH 7.4) containing collagenase Type II (65 units/ml, Worthington) and pancreatin (0.6 mg/ml, GibcoBRL). Dispersed cells were applied to a discontinuous gradient of 40.5% and 58.5% (v/v) Percoll (Amersham Biosciences), centrifuged, and myocytes collected from the interface layer. Myocyte preparations were pre-plated in Dulbecco's modified Eagle's medium (DMEM, Cellgro), supplemented with 10% (v/v) fetal bovine serum (FBS, HyClone), 4 mM L-glutamine and 1% penicillin/streptomycin for 1 hour at 37° C. to reduce fibroblast contamination, then plated at a density of 2.5×10^5 cells per well on 6-well tissue culture plates (or 10,000 cells/well on 96-well tissue culture plates) coated with a 0.2% (w/v) gelatin solution. […]
as §1, with “For cell volume measurements, NRVM cultured in 6-well dishes were harvested by treatment with trypsin (Cellgro).” left out

[3] = tested on: 28 kDa calcineurin-regulated MCIP1 protein; experiment: Western blot of MCIP1 protein in NRVM; format: cell-based, rat; conditions: NRVM stimulated with 18264 (1 μM), 48 h; CsA 500 nM; ketanserin, cyproheptadine 0.3 and 3 μM; 20068 1 and 3 μM
Experimental: as §2
Western Blots. […] Protein concentrations were determined by the bicinchoninic acid method (BCA Protein Assay, Pierce) with bovine serum albumin as a standard. Equivalent quantities of protein samples ([…]) were denatured in Laemmli buffer and resolved on Tris-glycine SDS-PAGE gels (4-20% acrylamide gradient, Invitrogen). […]

[4] = tested on: HDAC5; experiment: HDAC localization assay, GFP-HDAC5 in NRVM; format: cell-based, rat
Experimental: NRVM culture. For preparations of neonatal rat ventricular myocytes (NRVMs), hearts were removed from 10-20 newborn (1-2 days old) Sprague-Dawley rats. Isolated ventricles were pooled, minced and dispersed by three 20-min incubations at 37° C. in Ads buffer (116 mM NaCl, 20 mM HEPES, 10 mM NaH2PO4, 5.5 mM glucose, 5 mM KCl, 0.8 mM MgSO4, pH 7.4) containing collagenase Type II (65 units/ml, Worthington) and pancreatin (0.6 mg/ml, GibcoBRL). Dispersed cells were applied to a discontinuous gradient of 40.5% and 58.5% (v/v) Percoll (Amersham Biosciences), centrifuged, and myocytes collected from the interface layer. Myocyte preparations were pre-plated in Dulbecco's modified Eagle's medium (DMEM, Cellgro), supplemented with 10% (v/v) fetal bovine serum (FBS, HyClone), 4 mM L-glutamine and 1% penicillin/streptomycin for 1 hour at 37° C. to reduce fibroblast contamination, then plated at a density of 2.5×10^5 cells per well on 6-well tissue culture plates (or 10,000 cells/well on 96-well tissue culture plates) coated with a 0.2% (w/v) gelatin solution. After 24 hours in culture, myocyte preparations were transferred to serum-free maintenance medium (DMEM supplemented with 0.1% (v/v) Nutridoma (Roche), L-glutamine and penicillin/streptomycin). Where indicated, NRVM were treated with test compounds for a period of 48 h. For immunofluorescence applications, NRVM cultures were fixed, incubated with primary antibodies against alpha skeletal actin and atrial natriuretic factor, then incubated with rhodamine- or flurorescein-conjugated secondary antibodies. For HDAC localization assays, NRVM were plated to clear bottomed 96-well plates and infected overnight with recombinant adenovirus encoding HDAC5 fused to green fluorescent protein (multiplicity of infection=50). The next day, medium was replaced with serum-free maintenance medium for 4 hours, and test compounds added. After two hours, NRVM were fixed and imaged by fluorescent microscopy.

[5] = biological target: T1, 5-HT2B (Homo sapiens, UniProt P41595); experiment: Radioligand receptor binding assay (MDS Pharma); conditions: 10 μM compound, n=2
T1 construct: purchased MDS Pharma services 271700
T1 sequence (P41595 whole entry): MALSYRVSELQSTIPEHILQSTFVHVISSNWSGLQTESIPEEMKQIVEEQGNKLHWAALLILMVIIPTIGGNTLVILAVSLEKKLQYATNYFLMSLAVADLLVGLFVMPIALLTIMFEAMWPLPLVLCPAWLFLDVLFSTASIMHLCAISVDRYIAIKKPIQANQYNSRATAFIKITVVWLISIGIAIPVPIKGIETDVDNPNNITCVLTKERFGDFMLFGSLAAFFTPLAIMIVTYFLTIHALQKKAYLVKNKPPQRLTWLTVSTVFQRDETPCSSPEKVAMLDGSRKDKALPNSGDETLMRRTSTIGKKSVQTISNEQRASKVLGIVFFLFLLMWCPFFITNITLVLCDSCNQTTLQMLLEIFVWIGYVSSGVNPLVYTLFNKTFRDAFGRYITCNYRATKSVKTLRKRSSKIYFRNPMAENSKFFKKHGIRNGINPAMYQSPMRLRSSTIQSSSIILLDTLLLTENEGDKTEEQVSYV
Experimental: (§3) Receptor binding assays. Receptor binding assays were performed by MDS Pharma services. Assays included: Adenosine A1 (cat# 200510), Adenosine A2A (cat# 200610), Adenosine A3 (cat# 200720), Adrenergic alpha 1 (cat# 203500), Imidazoline 12 central (cat# 241000), Imidazoline I2 peripheral (cat# 241100), Inositol triphosphate (cat# 242500), Phorbol Ester (cat# 264500), 5-HT 2B (cat# 271700), and 5-HT 4 (cat# 272000).
(§4) • Summary of radioligand binding assays for 11 receptors. Data represent % inhibition of ligand binding in the presence of 10 μM 18264 (n=2).
(§5) • Summary of radioligand binding assays for three receptors. Data represent % inhibition of ligand binding in the presence of 10 μM 20068 (n=2).

[6] = biological target: T2, 5-HT2C (Homo sapiens, UniProt P28335); experiment: Radioligand receptor binding assay; conditions: 10 μM compound, n=2
T2 sequence (P28335 33-458): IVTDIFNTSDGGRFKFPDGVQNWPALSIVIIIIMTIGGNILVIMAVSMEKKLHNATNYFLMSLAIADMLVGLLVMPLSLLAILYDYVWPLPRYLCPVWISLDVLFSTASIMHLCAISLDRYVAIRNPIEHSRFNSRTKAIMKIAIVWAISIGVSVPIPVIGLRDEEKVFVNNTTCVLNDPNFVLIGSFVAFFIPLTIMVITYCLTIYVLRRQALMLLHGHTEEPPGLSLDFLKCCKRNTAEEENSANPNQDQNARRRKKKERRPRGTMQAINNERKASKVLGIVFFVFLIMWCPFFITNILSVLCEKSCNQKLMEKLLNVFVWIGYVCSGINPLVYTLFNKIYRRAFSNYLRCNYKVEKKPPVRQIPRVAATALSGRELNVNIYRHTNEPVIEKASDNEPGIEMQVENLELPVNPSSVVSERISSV

[7] = tested on: 5-HT1; experiment: Radioligand receptor binding assay; conditions: 10 μM compound, n=2
Experimental: as §3, §4, §5

[8] = tested on: neonatal rat ventricular myocytes (NRVM); experiment: Total cellular protein (Coomassie dye-binding) in NRVM; format: cell-based; conditions: PE-stimulated (20 μM) NRVM, 0.1-3 μM compound, 48 hours
Experimental: NRVM culture. For preparations of neonatal rat ventricular myocytes (NRVMs), hearts were removed from 10-20 newborn (1-2 days old) Sprague-Dawley rats. Isolated ventricles were pooled, minced and dispersed by three 20-min incubations at 37° C. in Ads buffer (116 mM NaCl, 20 mM HEPES, 10 mM NaH2PO4, 5.5 mM glucose, 5 mM KCl, 0.8 mM MgSO4, pH 7.4) containing collagenase Type II (65 units/ml, Worthington) and pancreatin (0.6 mg/ml, GibcoBRL). Dispersed cells were applied to a discontinuous gradient of 40.5% and 58.5% (v/v) Percoll (Amersham Biosciences), centrifuged, and myocytes collected from the interface layer. […]
as §1, with “For cell volume measurements, NRVM cultured in 6-well dishes were harvested by treatment with trypsin (Cellgro).” left out, “Cytotoxicity was quantitated by measuring release of adenylate kinase (AK) from cultured NRVM into culture medium (ToxiLight kit, Cambrex).” left out

[9] = tested on: neonatal rat ventricular myocytes (NRVM); experiment: Cell volume measurement (Coulter counter) of NRVM; format: cell-based; conditions: PE-stimulated (20 μM) NRVM, 48 hours
Experimental: as §2
as §1, with “For cell volume measurements, NRVM cultured in 6-well dishes were harvested by treatment with trypsin (Cellgro).” left out

## Triton X-100 [reference compound]
[1]; 0.1% Triton X-100, positive control
  fold change in AK release versus unstimulated control: approximately 6.5 fold

## O=C(c1ccc(F)cc1)C1CCN(CCn2c(=O)[nH]c3ccccc3c2=O)CC1 [ketanserin, reference compound]
[2]
  block of 18264-dependent ANF secretion: able to block
[3]
  attenuation of 18264-dependent induction of MCIP1 protein expression: attenuated

## CNC[C@H](O)c1cccc(O)c1 [PE, phenylephrine, reference compound]
[4]; NRVM, two hours, 18264 1 μM, PE 20 μM
  nuclear export of HDAC5-GFP: moves to cytoplasm

## Nc1cc(-c2ccccc2)nc2ccccc12 [Compound 20068, 2-Phenyl-quinolin-4-ylamine]
[4]; NRVM pretreated with 20068 (2 μM) one hour before 18264 (1 μM)
  block of 18264-dependent nuclear export of HDAC5: effective at blocking
[5]
  inhibition at 10 µM: 76%
[2]
  block of 18264-dependent ANF secretion: effective at blocking
[1]; presence or absence of hypertrophic stimuli, up to 3 micromolar, 48 hours
  cytotoxicity (AK release), in words: no significant cytotoxicity
[6]
  inhibition at 10 µM: 63%
[7]
  % Inhibition of Binding: 19%
[8]
  attenuation of PE-dependent increase in total cellular protein: attenuated
[9]; 3 μM compound
  reduction of PE-dependent increase in cardiomyocyte cell volume: 49%
[9]; 0.1-3 μM compound
  attenuation of PE-dependent increase in cell volume (in words): attenuated
[3]
  attenuation of 18264-dependent induction of MCIP1 protein expression: blocking 18264-dependent increases in MCIP1 protein in a dose-dependent manner
